Tested on: Aspergillus niger
Assay: Effect of farnesol on the sporulation of Aspergillus niger on malt extract agar
Type: cell-based
Settings: 5 days at 25° C.; for Sporulation [%]: evaluated by appearance
Method: Quantities of 100 μl of a cell suspension of Aspergillus niger (1.5·10^7 cells/ml) were plated out onto malt agar extract (Merck) to which farnesol had been added in various quantities of 0; 25; 62.5; 125; 250 and 500 μM.

Q: With `CC(C)=CCCC(C)=CCCC(C)=CCO` [farnesol] as the compound, how does the “Sporulation [%]” value (farnesol 25 μM in agar) read?
A: 90%

Q: What about the “Sporulation [%]” value (farnesol 62.5 μM in agar) of the same compound?
A: 75%

Q: And the “Sporulation [%]” value (farnesol 125 μM in agar)?
A: 50%

Q: What about the “Sporulation [%]” value (farnesol 250 μM in agar) of the same compound?
A: 10%

Q: What about the “inhibition of sporulation (in words)” value (farnesol 500 μM in agar) of the same compound?
A: completely suppressed

Q: What about the “Sporulation [%]” value (farnesol 500 μM in agar) of the same compound?
A: 0%

Q: And the inhibition of growth (farnesol 25 to 500 μM in agar)?
A: None of the farnesol concentrations used inhibited growth
